From patent US20240124417A1, “COMPOUNDS USEFUL AS IMMUNOMODULATORS” (Bristol-Myers Squibb Company, priority 2019, published 2024) come the findings set out here.

The structures appear in SMILES notation.

The experiment deals with T1, PD-1/PD-L1 (Homo sapiens, UniProt Q9NZQ7).
T1 construct: TVMV protease site linker (C); made in house; host or cells: HEK293T cells
Nature of the experiment: PD-1/PD-L1 Homogenous Time-Resolved Fluorescence (HTRF) binding assay. Conditions: PD-L1-His 10 nM, PD-1-Ig 20 nM. In a few lines: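 Time-resolved FRET read-out using Eu-cryptate anti-Ig (1 nM final) and APC anti-His (20 nM final). Tagged extracellular domains were used in BSA/Tween-20-supplemented dPBS, with compound pre-incubated 15 min with PD-L1-His (10 nM) before PD-1-Ig (20 nM) was added for 15 min. Other human pairs: PD-L2-His 5 nM with PD-1-Ig 20 nM; PD-L1-Ig 10 nM with CD80-His 100 nM.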

T1 sequence (Q9NZQ7 18-239): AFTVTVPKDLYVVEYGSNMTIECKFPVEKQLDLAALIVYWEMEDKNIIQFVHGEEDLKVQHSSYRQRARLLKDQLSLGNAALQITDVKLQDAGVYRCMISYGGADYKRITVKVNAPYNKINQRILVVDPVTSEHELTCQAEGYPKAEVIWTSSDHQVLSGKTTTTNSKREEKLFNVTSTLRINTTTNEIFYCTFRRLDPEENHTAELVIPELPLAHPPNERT

Take `Cc1c(COc2cc(OCc3cncc(C#N)c3)c(CN3CCc4c(ncn4C)C3)cc2Cl)cccc1-c1cccc(OCC2CCCN(C)C2)c1Cl` (centres unmarked) [Example 2592, 5-((4-chloro-5-((2′-chloro-2-methyl-3′-((1-methylpiperidin-3-yl)methoxy)-[1,1′-biphenyl]-3-yl)methoxy)-2-((1-methyl-1,4,6,7-tetrahydro-5H-imidazo[4,5-c]pyridin-5-yl)methyl)phenoxy)methyl)nicotinonitrile]: the IC50 is 3.6 nM.
In turn, `Cc1c(COc2cc(OCc3cncc(C#N)c3)c(CNCCc3nc4ccccc4[nH]3)cc2Cl)cccc1-c1cccc(OCC2CCCN(C)C2)c1Cl` (centres unmarked) [Example 2593, 5-((2-(((2-(1H-benzo[d]imidazol-2-yl)ethyl)amino)methyl)-4-chloro-5-((2′-chloro-2-methyl-3′-((1-methylpiperidin-3-yl)methoxy)-[1,1′-biphenyl]-3-yl)methoxy)phenoxy)methyl)nicotinonitrile] returned an IC50 of 3 nM.
`Cc1ncsc1CCNCc1cc(Cl)c(OCc2cccc(-c3cccc(OCC4CCCN(C)C4)c3Cl)c2C)cc1OCc1cncc(C#N)c1` (centres unmarked) [Example 2594, 5-((4-chloro-5-((2′-chloro-2-methyl-3′-((1-methylpiperidin-3-yl)methoxy)-[1,1′-biphenyl]-3-yl)methoxy)-2-(((2-(4-methylthiazol-5-yl)ethyl)amino)methyl)phenoxy)methyl)nicotinonitrile] gave an IC50 of 0.7 nM.
The compound `COCc1noc(CNCc2cc(Cl)c(OCc3cccc(-c4cccc(OCC5CCCN(C)C5)c4Cl)c3C)cc2OCc2cncc(C#N)c2)n1` (centres unmarked) [Example 2595, 5-((4-chloro-5-((2′-chloro-2-methyl-3′-((1-methylpiperidin-3-yl)methoxy)-[1,1′-biphenyl]-3-yl)methoxy)-2-((((3-(methoxymethyl)-1,2,4-oxadiazol-5-yl)methyl)amino)methyl)phenoxy)methyl)nicotinonitrile] returned an IC50 of 2 nM.
With `Cc1c(COc2cc(OCc3cncc(C#N)c3)c(CNCc3cc(C)n(C)n3)cc2Cl)cccc1-c1cccc(OCC2CCCN(C)C2)c1Cl` (centres unmarked) [Example 2596, 5-((4-chloro-5-((2′-chloro-2-methyl-3′-((1-methylpiperidin-3-yl)methoxy)-[1,1′-biphenyl]-3-yl)methoxy)-2-((((1,5-dimethyl-1H-pyrazol-3-yl)methyl)amino)methyl)phenoxy)methyl)nicotinonitrile] the figure was 2.9 nM; with `Cc1noc(C)c1CNCc1cc(Cl)c(OCc2cccc(-c3cccc(OCC4CCCN(C)C4)c3Cl)c2C)cc1OCc1cncc(C#N)c1` (centres unmarked) [Example 2597, 5-((4-chloro-5-((2′-chloro-2-methyl-3′-((1-methylpiperidin-3-yl)methoxy)-[1,1′-biphenyl]-3-yl)methoxy)-2-((((3,5-dimethylisoxazol-4-yl)methyl)amino)methyl)phenoxy)methyl)nicotinonitrile], 2.9 nM.
The compound `Cc1c(COc2cc(OCc3cncc(C#N)c3)c(CNCCc3cscn3)cc2Cl)cccc1-c1cccc(OCC2CCCN(C)C2)c1Cl` (centres unmarked) [Example 2598, 5-((4-chloro-5-((2′-chloro-2-methyl-3′-((1-methylpiperidin-3-yl)methoxy)-[1,1′-biphenyl]-3-yl)methoxy)-2-(((2-(thiazol-4-yl)ethyl)amino)methyl)phenoxy)methyl)nicotinonitrile] yielded an IC50 of 1 nM.
In turn, `Cc1n[nH]c(C)c1CNCc1cc(Cl)c(OCc2cccc(-c3cccc(OCC4CCCN(C)C4)c3Cl)c2C)cc1OCc1cncc(C#N)c1` (centres unmarked) [Example 2599, 5-((4-chloro-5-((2′-chloro-2-methyl-3′-((1-methylpiperidin-3-yl)methoxy)-[1,1′-biphenyl]-3-yl)methoxy)-2-((((3,5-dimethyl-1H-pyrazol-4-yl)methyl)amino)methyl)phenoxy)methyl)nicotinonitrile] had an IC50 of 1.7 nM.
`Cc1nc2c(s1)CN(Cc1cc(Cl)c(OCc3cccc(-c4cccc(OCC5CCCN(C)C5)c4Cl)c3C)cc1OCc1cncc(C#N)c1)CC2` (centres unmarked) [Example 2600, 5-((4-chloro-5-((2′-chloro-2-methyl-3′-((1-methylpiperidin-3-yl)methoxy)-[1,1′-biphenyl]-3-yl)methoxy)-2-((2-methyl-6,7-dihydrothiazolo[5,4-c]pyridin-5(4H)-yl)methyl)phenoxy)methyl)nicotinonitrile] displayed an IC50 of 7.2 nM.
Regarding `Cc1c(COc2cc(OCc3cncc(C#N)c3)c(CNC3CCc4[nH]ncc4C3)cc2Cl)cccc1-c1cccc(OCC2CCCN(C)C2)c1Cl` (centres unmarked) [Example 2601, 5-((4-chloro-5-((2′-chloro-2-methyl-3′-((1-methylpiperidin-3-yl)methoxy)-[1,1′-biphenyl]-3-yl)methoxy)-2-(((4,5,6,7-tetrahydro-1H-indazol-5-yl)amino)methyl)phenoxy)methyl)nicotinonitrile], the IC50 stood at 0.6 nM.
The compound `Cc1c(COc2cc(OCc3cncc(C#N)c3)c(CNCc3cc4ccccn4n3)cc2Cl)cccc1-c1cccc(OCC2CCCN(C)C2)c1Cl` (centres unmarked) [Example 2602, 5-((4-chloro-5-((2′-chloro-2-methyl-3′-((1-methylpiperidin-3-yl)methoxy)-[1,1′-biphenyl]-3-yl)methoxy)-2-(((pyrazolo[1,5-a]pyridin-2-ylmethyl)amino)methyl)phenoxy)methyl)nicotinonitrile] registered an IC50 of 1.6 nM.
Compound `Cc1nc(CNCc2cc(Cl)c(OCc3cccc(-c4cccc(OCC5CCCN(C)C5)c4Cl)c3C)cc2OCc2cncc(C#N)c2)no1` (centres unmarked) [Example 2603, 5-((4-chloro-5-((2′-chloro-2-methyl-3′-((1-methylpiperidin-3-yl)methoxy)-[1,1′-biphenyl]-3-yl)methoxy)-2-((((5-methyl-1,2,4-oxadiazol-3-yl)methyl)amino)methyl)phenoxy)methyl)nicotinonitrile] returned a 50% inhibitory concentration (IC50) of 0.9 nM.
`Cc1nnc(CNCc2cc(Cl)c(OCc3cccc(-c4cccc(OCC5CCCN(C)C5)c4Cl)c3C)cc2OCc2cncc(C#N)c2)[nH]1` (centres unmarked) [Example 2604, 5-((4-chloro-5-((2′-chloro-2-methyl-3′-((1-methylpiperidin-3-yl)methoxy)-[1,1′-biphenyl]-3-yl)methoxy)-2-((((5-methyl-4H-1,2,4-triazol-3-yl)methyl)amino)methyl)phenoxy)methyl)nicotinonitrile] registered an IC50 of 2.3 nM.
With `Cc1c(COc2cc(OCc3cncc(C#N)c3)c(CNCCc3nc4ccccc4n3C)cc2Cl)cccc1-c1cccc(OCC2CCCN(C)C2)c1Cl` (centres unmarked) [Example 2605, 5-((4-chloro-5-((2′-chloro-2-methyl-3′-((1-methylpiperidin-3-yl)methoxy)-[1,1′-biphenyl]-3-yl)methoxy)-2-(((2-(1-methyl-1H-benzo[d]imidazol-2-yl)ethyl)amino)methyl)phenoxy)methyl)nicotinonitrile] the figure was 0.6 nM.
`Cc1c(COc2cc(OCc3cncc(C#N)c3)c(CNCc3ccc4cc[nH]c4c3)cc2Cl)cccc1-c1cccc(OCC2CCCN(C)C2)c1Cl` (centres unmarked) [Example 2606, 5-((2-((((1H-indol-6-yl)methyl)amino)methyl)-4-chloro-5-((2′-chloro-2-methyl-3′-((1-methylpiperidin-3-yl)methoxy)-[1,1′-biphenyl]-3-yl)methoxy)phenoxy)methyl)nicotinonitrile] came in with an IC50 of 1.4 nM.
For the compound `Cc1c(COc2cc(OCc3cncc(C#N)c3)c(CNCc3cc(C4CC4)on3)cc2Cl)cccc1-c1cccc(OCC2CCCN(C)C2)c1Cl` (centres unmarked) [Example 2607, 5-((4-chloro-5-((2′-chloro-2-methyl-3′-((1-methylpiperidin-3-yl)methoxy)-[1,1′-biphenyl]-3-yl)methoxy)-2-((((5-cyclopropylisoxazol-3-yl)methyl)amino)methyl)phenoxy)methyl)nicotinonitrile], the IC50 turned out to be 4.2 nM.
With `Cc1c(COc2cc(OCc3cncc(C#N)c3)c(CN3CCC(c4cc[nH]n4)C3)cc2Cl)cccc1-c1cccc(OCC2CCCN(C)C2)c1Cl` (centres unmarked) [Example 2608, 5-((2-((3-(1H-pyrazol-3-yl)pyrrolidin-1-yl)methyl)-4-chloro-5-((2′-chloro-2-methyl-3′-((1-methylpiperidin-3-yl)methoxy)-[1,1′-biphenyl]-3-yl)methoxy)phenoxy)methyl)nicotinonitrile] the figure was 2.3 nM.
With `Cc1nc2ccc(CNCc3cc(Cl)c(OCc4cccc(-c5cccc(OCC6CCCN(C)C6)c5Cl)c4C)cc3OCc3cncc(C#N)c3)cc2[nH]1` (centres unmarked) [Example 2609, 5-((4-chloro-5-((2′-chloro-2-methyl-3′-((1-methylpiperidin-3-yl)methoxy)-[1,1′-biphenyl]-3-yl)methoxy)-2-((((2-methyl-1H-benzo[d]imidazol-6-yl)methyl)amino)methyl)phenoxy)methyl)nicotinonitrile] the figure was 1.1 nM.
The compound `Cc1c(COc2cc(OCc3cncc(C#N)c3)c(CNCc3ccc4c(N)n[nH]c4c3)cc2Cl)cccc1-c1cccc(OCC2CCCN(C)C2)c1Cl` (centres unmarked) [Example 2610, 5-((2-((((3-amino-1H-indazol-6-yl)methyl)amino)methyl)-4-chloro-5-((2′-chloro-2-methyl-3′-((1-methylpiperidin-3-yl)methoxy)-[1,1′-biphenyl]-3-yl)methoxy)phenoxy)methyl)nicotinonitrile] had an IC50 of 0.8 nM.
With `Cc1c(COc2cc(OCc3cncc(C#N)c3)c(CNCc3nc4ccccc4s3)cc2Cl)cccc1-c1cccc(OCC2CCCN(C)C2)c1Cl` (centres unmarked) [Example 2611, 5-((2-(((benzo[d]thiazol-2-ylmethyl)amino)methyl)-4-chloro-5-((2′-chloro-2-methyl-3′-((1-methylpiperidin-3-yl)methoxy)-[1,1′-biphenyl]-3-yl)methoxy)phenoxy)methyl)nicotinonitrile], the IC50 was 5.9 nM.

What is called IC50 is the concentration at which inhibition is half-maximal. Lower therefore signals higher potency.
